Measured values taken from paper PMC8962522, “Direct interaction of TrkA/CD44v3 is essential for NGF-promoted aggressiveness of breast cancer cells” (Journal of Experimental & Clinical Cancer Research : CR, 2022).

What was measured:
Format in all cases: cell-based
[1] = test system: TrkA/CD44v3 complex in MDA-MB-231 cells; experiment: PLA TrkA/CD44v3 complex formation in MDA-MB-231 cells; conditions: NGF 100 ng/ml; 30 fields per condition, three experiments
Description: Cells (10,000 cells per well) were grown on acid-washed eight-well glass slides (Thermo Scientific) in the appropriate medium supplemented with 10% FBS for 24 h. After NGF treatment, paraformaldehyde (PAF)-fixed cells were incubated with 4% bovine serum albumin (BSA) or 5% FBS (for 1 h at 20 °C), followed by overnight incubation with primary antibodies (rabbit anti-TrkA or rabbit anti-IgG + mouse anti-pan-CD44; mouse anti-CD44v3; mouse anti-CD44v6; mouse anti-IgG2a; mouse anti-IgG2b; or mouse anti-IgG1). PLA was performed following the manufacturer’s instructions in the assay kit (Duolink PLA; Sigma–Aldrich). To obtain the correct representation of the PLA signal for each condition, 30 fields per condition were observed using a fluorescence microscope (Eclipse TiU; Nikon, Japan). The PLA signals (red dots) were automatically quantified using ImageJ software (with an in-house-developed plug-in). After PLA, statistical analyses were performed using GraphPad Prism software to determine the mean dot intensity in the cells.
Fig. 3 CD44v3 mimetic peptide 4 blocks the TrkA-CD44 association in MDA-MB-231 breast cancer cells. TrkA/CD44v3 (A) and TrkA/CD44v6 (B) complex associations were detected by the proximity ligation assay (PLA) in MDA-MB-231 breast cancer cells. Effects of a scramble peptide (SP) (C), CD44v3 mimetic peptide 3 (P3) and 4 (P4) (D) on TrkA/CD44v3 complex formation induced by NGF. Quantification of the PLA results was performed by ImageJ software (30 randomly chosen fields per condition of three different experiments). Statistical analyses were performed using one-way ANOVA followed by Bonferroni’s posttest. The error bars represent the standard error of the mean (S.E.M.); * p < 0.05, ** p < 0.01, *** p < 0.001; ns, not significant

[2] = test system: MDA-MB-231 cells; experiment: Elongation factor (length-to-width ratio), MDA-MB-231; conditions: MDA-MB-231, with NGF
Description: Therefore, in this study, we assessed TrkA binding to CD44v3 in MDA-MB-231 cells, which were used as TNBC model cells. First, PLA was performed using anti-CD44 variant 3- (Fig. 3A and Supplementary Fig. 7) or anti-CD44 variant 6-specific antibodies (Fig. 3B). […] Next, we tested the ability of CD44v3 mimetic peptides to block TrkA/CD44v3 complex formation in MDA-MB-231 cells (Fig. 3C-E). […] Therefore, we evaluated the physiological consequences of TrkA/CD44v3 complex dissociation induced by CD44v3 mimetic peptide 4 on MDA-MB-231 cell phenotypes (Fig. 4). We first examined the effect of mimetic peptide 4 on clonogenic cell growth. For this experiment, MDA-MB-231 cells were grown in the presence of 2% FBS for […] in the presence or absence of CD44v3 mimetic peptide 4 (Fig. 4A and B). […] We first determined the effect of CD44v3 on the length-to-width (l/w) ratio of the cells (elongation factor) (Fig. 4C-E). […]
Fig. 4 CD44v3 mimetic peptide 4 inhibits MDA-MB-231 breast cancer cell growth and migration/invasion. Clonogenic MDA-MB-231 cell growth was measured after 10 days in the presence of a scramble peptide (SP) or CD44v3 mimetic peptide (P4) (A, B). The elongation factor (length-to-width ratio) was assessed after 10 days in the presence or absence of NGF (C, D, E). […] Invasion through collagen 1 was measured by the Transwell assay 16 h after treatment (J, K). […]

[3] = test system: MDA-MB-231 cells; experiment: Scratch/wound migration assay, MDA-MB-231; conditions: peptide 50 ng/mL 30 min before NGF 100 ng/ml; 24 h, 0.1% FBS; siCD44v3 24 h after treatment
Description: Scratch/wound migration assays were performed using inserts (Ibidi, Germany). MDA-MB-231 cells (4 × 10^5 cells/mL) were seeded onto each side of the chamber and incubated overnight at 37 °C until they reached the subconfluent stage. Next, the inserts were removed, and the cells were rinsed and starved (1 mL of 0.1% FBS medium for 1 h). Images of the initial wound were obtained using an inverted microscope, and the cells were incubated with or without the peptide (scramble or P4; 50 ng/mL) for 30 min and stimulated with NGF (100 ng/ml). After 24 h, images (2/wound) were obtained of the same place on the wound as those initially taken. The distance between the 2 migration fronts was measured using ImageJ software.
(§1) Fig. 4 CD44v3 mimetic peptide 4 inhibits MDA-MB-231 breast cancer cell growth and migration/invasion. Clonogenic MDA-MB-231 cell growth was measured after 10 days in the presence of a scramble peptide (SP) or CD44v3 mimetic peptide (P4) (A, B). The elongation factor (length-to-width ratio) was assessed after 10 days in the presence or absence of NGF (C, D, E). Migration assays were performed using Ibidi devices 24 h after treatment (H, I). Invasion through collagen 1 was measured by the Transwell assay 16 h after treatment (J, K). Statistical analyses were performed using one-way ANOVA followed by Bonferroni’s posttest. […]

[4] = test system: MDA-MB-231 cells; experiment: Transwell invasion assay through collagen I, MDA-MB-231; conditions: peptide 50 ng/mL for 30 min, NGF in lower chamber, 24 h (legend: 16 h)
Description: Transwell invasion assays were performed to assess cancer cell invasion in a Transwell chamber containing a collagen I-coated membrane (12-wells with inserts and […] pore size membranes; Corning, Life Sciences). A total of 1 × 10^6 starved cells (0.1% in SVF medium) were plated in the top chamber and incubated for 10 min before treatment with a peptide (50 ng/mL for 30 min); NGF was added to the lower chamber. After 24 h, the cells were fixed with methanol for 10 min and stained with Hoechst 33258 (1 mg/mL) for 30 min, and the cells that invaded the lower surface through the pores of the inserts were automatically counted under an inverted microscope with ImageJ software (with an in-house-developed plug-in).
as §1

Row | Substance | effect on TrkA/CD44v3 complex formation (PLA) in MDA-MB-231 cells [1] | effect on length-to-width (l/w) ratio (elongation factor) [2] | effect on migration (wound closure) of MDA-MB-231 cells [3] | effect on invasion of MDA-MB-231 cells [4]
1 | IDDDEDFISST [Peptide 4, mimetic peptide 4 (…) corresponding to the C-terminal region of CD44v3] | could disrupt TrkA/CD44v3 complex formation in MDA-MB-231 cells | This effect of NGF was inhibited | completely blocked NGF-dependent wound closure | a decrease in both basal levels and NGF-induced invasion was observed
2 | NGF: recombinant human β-NGF (Alomone Labs, Israel) | induced TrkA/CD44v3 complex formation in MDA-MB-231 cells at the plasma membrane within 5 min to 30 min of administration | significant increase in the l/w ratio | the migration of MDA-MB-231 cells was increased, as indicated by complete wound closure 24 h after treatment | more NGF-treated cells than untreated cells invaded the collagen substrate
